According to PubChem BioAssay AID248 (DTP/NCI, 2004):
“And” between values parts separate entries of the source, which are not always exact repeats. Identical values can stand only once. Toxic doses and inconclusive results are not listed.

Tested on: L1210 leukemia ip in BDF1 mice, survival T/C
Test: NCI In Vivo Anticancer Drug Screen. Data for tumor model L1210 Leukemia (intraperitoneal) in B6D2F1 (BDF1) mice
Details: higher = longer survival
Method in brief: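 Value reflects the ratio of survival in compound-treated mice to survival in vehicle-treated controls, with both groups carrying the same transplanted tumor.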

[1] = endpoint: mean survival time, dose: 100.0 mg/kg/injection, schedule: Q01DX001 (ip), vehicle: saline
[2] = endpoint: mean survival time, dose: 200.0 mg/kg/injection, schedule: Q01DX001 (ip), vehicle: saline
[3] = endpoint: mean survival time, dose: 400.0 mg/kg/injection, schedule: Q01DX001 (ip), vehicle: saline
[4] = endpoint: mean survival time, dose: 100.0 mg/kg/injection, schedule: Q04DX003 (ip), vehicle: Klucel (hydroxypropylcellulose) (HPC)
[5] = endpoint: mean survival time, dose: 200.0 mg/kg/injection, schedule: Q04DX003 (ip), vehicle: Klucel (hydroxypropylcellulose) (HPC)
[6] = endpoint: mean survival time, dose: 400.0 mg/kg/injection, schedule: Q04DX003 (ip), vehicle: Klucel (hydroxypropylcellulose) (HPC)
[7] = endpoint: mean survival time, dose: 25.0 mg/kg/injection, schedule: Q01DX009 (ip), vehicle: saline
[8] = endpoint: mean survival time, dose: 50.0 mg/kg/injection, schedule: Q01DX009 (ip), vehicle: saline
[9] = endpoint: mean survival time, dose: 100.0 mg/kg/injection, schedule: Q04DX002 (ip), vehicle: Klucel (hydroxypropylcellulose) (HPC)
[10] = endpoint: mean survival time, dose: 200.0 mg/kg/injection, schedule: Q04DX002 (ip), vehicle: Klucel (hydroxypropylcellulose) (HPC)
[11] = endpoint: mean survival time, dose: 400.0 mg/kg/injection, schedule: Q04DX002 (ip), vehicle: Klucel (hydroxypropylcellulose) (HPC)
[12] = endpoint: mean survival time, dose: 100.0 mg/kg/injection, schedule: Q01DX009 (ip), vehicle: Klucel (hydroxypropylcellulose) (HPC)
[13] = endpoint: mean survival time, dose: 200.0 mg/kg/injection, schedule: Q01DX009 (ip), vehicle: Klucel (hydroxypropylcellulose) (HPC)

COc1cccc2c1C(=O)c1c(O)c3c(c(O)c1C2=O)CC(O)(C(=O)CO)CC3OC1CC(N)C(O)C(C)O1 (stereo unspecified)
T/C (endpoint: mean survival time, dose: 0.5 mg/kg/injection, schedule: Q01DX008 (ip), vehicle: saline): 151 % of control
T/C (endpoint: mean survival time, dose: 1.0 mg/kg/injection, schedule: Q01DX008 (ip), vehicle: saline): 158 % of control
T/C (endpoint: mean survival time, dose: 2.0 mg/kg/injection, schedule: Q01DX008 (ip), vehicle: saline): 209 % of control
T/C (endpoint: mean survival time, dose: 4.0 mg/kg/injection, schedule: Q01DX008 (ip), vehicle: saline): 98 % of control
T/C (endpoint: median survival time, dose: 4.0 mg/kg/injection, schedule: Q01DX005 (ip), vehicle: water): 121 % of control
T/C (endpoint: median survival time, dose: 6.0 mg/kg/injection, schedule: Q01DX005 (ip), vehicle: other): 115 % of control
T/C (endpoint: median survival time, dose: 11.0 mg/kg/injection, schedule: Q01DX005 (ip), vehicle: other): 123 % of control
T/C (endpoint: median survival time, dose: 11.0 mg/kg/injection, schedule: Q01DX005 (ip), vehicle: water): 177 % of control
T/C (endpoint: median survival time, dose: 11.0 mg/kg/injection, schedule: Q04DX003 (ip), vehicle: water): 115 % of control
T/C (endpoint: median survival time, dose: 16.0 mg/kg/injection, schedule: Q01DX005 (ip), vehicle: other): 123 % of control
T/C (endpoint: median survival time, dose: 19.0 mg/kg/injection, schedule: Q01DX005 (ip), vehicle: water): 177 % of control
T/C (endpoint: median survival time, dose: 31.0 mg/kg/injection, schedule: Q01DX005 (ip), vehicle: water): 155 % of control
T/C (endpoint: median survival time, dose: 31.0 mg/kg/injection, schedule: Q04DX003 (ip), vehicle: water): 121 % of control
T/C (endpoint: median survival time, dose: 51.6 mg/kg/injection, schedule: Q01DX005 (ip), vehicle: water): 152 % of control
T/C (endpoint: median survival time, dose: 52.0 mg/kg/injection, schedule: Q04DX003 (ip), vehicle: water): 194 % of control
T/C (endpoint: median survival time, dose: 87.0 mg/kg/injection, schedule: Q04DX003 (ip), vehicle: water): 157 % of control and 172 % of control
T/C (endpoint: median survival time, dose: 145.0 mg/kg/injection, schedule: Q04DX003 (ip), vehicle: water): 110 % of control
T/C (endpoint: median survival time, dose: 242.0 mg/kg/injection, schedule: Q04DX003 (ip), vehicle: water): 89 % of control

N=c1ccn(C2OC(CO)C(O)C2O)c(=O)n1O (stereo unspecified)
T/C (endpoint: mean survival time, dose: 5.0 mg/kg/injection, schedule: Q01DX009 (ip), vehicle: saline): 123 % of control
T/C (endpoint: mean survival time, dose: 10.0 mg/kg/injection, schedule: Q01DX009 (ip), vehicle: saline): 100 % of control
T/C [1]: 105 % of control
T/C [2]: 108 % of control
T/C [3]: 103 % of control and 105 % of control
T/C (endpoint: mean survival time, dose: 400.0 mg/kg/injection, schedule: Q01DX009 (ip), vehicle: saline): 167 % of control
T/C (endpoint: mean survival time, dose: 600.0 mg/kg/injection, schedule: Q01DX001 (ip), vehicle: saline): 105 % of control
T/C (endpoint: mean survival time, dose: 600.0 mg/kg/injection, schedule: Q01DX009 (ip), vehicle: saline): 94 % of control
T/C (endpoint: mean survival time, dose: 800.0 mg/kg/injection, schedule: Q01DX001 (ip), vehicle: saline): 110 % of control
T/C (endpoint: mean survival time, dose: 800.0 mg/kg/injection, schedule: Q01DX009 (ip), vehicle: saline): 94 % of control

CC(=O)NC1CCCC(CC2CCCCC2)C1 (stereo unspecified)
T/C [4]: 103 % of control
T/C [5]: 93 % of control
T/C [6]: 98 % of control

N#CCC(=O)NCc1cnccn1
T/C (endpoint: mean survival time, dose: 50.0 mg/kg/injection, schedule: Q01DX005 (ip), vehicle: saline): 110 % of control
T/C (endpoint: mean survival time, dose: 100.0 mg/kg/injection, schedule: Q01DX005 (ip), vehicle: saline): 104 % of control
T/C (endpoint: mean survival time, dose: 100.0 mg/kg/injection, schedule: Q04DX003 (ip), vehicle: saline): 103 % of control
T/C (endpoint: mean survival time, dose: 200.0 mg/kg/injection, schedule: Q01DX005 (ip), vehicle: saline): 105 % of control
T/C (endpoint: mean survival time, dose: 200.0 mg/kg/injection, schedule: Q04DX003 (ip), vehicle: saline): 103 % of control
T/C (endpoint: mean survival time, dose: 400.0 mg/kg/injection, schedule: Q01DX005 (ip), vehicle: saline): 105 % of control
T/C (endpoint: mean survival time, dose: 400.0 mg/kg/injection, schedule: Q04DX003 (ip), vehicle: saline): 101 % of control

COc1ccc(C(SCC(N)C(=O)O)(c2ccccc2)c2ccccc2)cc1 (stereo unspecified)
T/C (endpoint: mean survival time, dose: 7.4 mg/kg/injection, schedule: Q01DX009 (ip), vehicle: saline): 122 % of control
T/C [7]: 166 % of control
T/C [8]: 183 % of control
T/C (endpoint: mean survival time, dose: 100.0 mg/kg/injection, schedule: Q01DX009 (ip), vehicle: saline): 100 % of control

CCO/C=N\c1c(C#N)c(CC#N)nn1C
T/C [9]: 102 % of control
T/C [10]: 98 % of control
T/C [11]: 102 % of control

CC(C)CCC(=O)CCC1CCCCC1
T/C [1]: 92 % of control
T/C [2]: 92 % of control
T/C [3]: 94 % of control

COC(=O)CC(=O)c1ccc2ccccc2n1
T/C (endpoint: mean survival time, dose: 50.0 mg/kg/injection, schedule: Q01DX001 (ip), vehicle: carboxymethylcellulose (CMC)): 108 % of control
T/C (endpoint: mean survival time, dose: 100.0 mg/kg/injection, schedule: Q01DX001 (ip), vehicle: carboxymethylcellulose (CMC)): 100 % of control
T/C (endpoint: mean survival time, dose: 200.0 mg/kg/injection, schedule: Q01DX001 (ip), vehicle: carboxymethylcellulose (CMC)): 97 % of control
T/C (endpoint: mean survival time, dose: 400.0 mg/kg/injection, schedule: Q01DX001 (ip), vehicle: carboxymethylcellulose (CMC)): 105 % of control

CC(=O)Nc1cc(C/C(N)=N/O)cc(NC(C)=O)c1
T/C (endpoint: mean survival time, dose: 100.0 mg/kg/injection, schedule: Q01DX009 (ip), vehicle: saline with Tween-80): 97 % of control
T/C (endpoint: mean survival time, dose: 200.0 mg/kg/injection, schedule: Q01DX009 (ip), vehicle: saline with Tween-80): 92 % of control
T/C (endpoint: mean survival time, dose: 400.0 mg/kg/injection, schedule: Q01DX009 (ip), vehicle: saline with Tween-80): 100 % of control

COc1ccc(COC(=O)Nc2ccccc2Cl)cc1
T/C [12]: 91 % of control
T/C [9]: 95 % of control
T/C [13]: 96 % of control
T/C (endpoint: mean survival time, dose: 400.0 mg/kg/injection, schedule: Q01DX009 (ip), vehicle: Klucel (hydroxypropylcellulose) (HPC)): 104 % of control
T/C [11]: 95 % of control

CCN(C)C(=O)Nc1cccc([N+](=O)[O-])c1
T/C [9]: 101 % of control
T/C [10]: 93 % of control
T/C [11]: 93 % of control

CSc1n[nH]c(/N=N/N(C)C)c1C(N)=O
T/C [4]: 99 % of control
T/C [5]: 103 % of control
T/C [6]: 111 % of control

CSc1nnnc2ccccc12
T/C (endpoint: mean survival time, dose: 37.5 mg/kg/injection, schedule: Q04DX002 (ip), vehicle: saline with Tween-80): 113 % of control
T/C (endpoint: mean survival time, dose: 75.0 mg/kg/injection, schedule: Q04DX002 (ip), vehicle: saline with Tween-80): 92 % of control

C=CCOB(OCC=C)OCC=C
T/C (endpoint: mean survival time, dose: 12.5 mg/kg/injection, schedule: Q01DX009 (ip), vehicle: saline): 120 % of control
T/C [7]: 101 % of control
T/C (endpoint: mean survival time, dose: 25.0 mg/kg/injection, schedule: Q04DX003 (ip), vehicle: saline): 97 % of control
T/C [8]: 106 % of control
T/C (endpoint: mean survival time, dose: 50.0 mg/kg/injection, schedule: Q04DX003 (ip), vehicle: saline): 103 % of control

CC(C)CN(CC(C)C)/N=C/c1cc([N+](=O)[O-])ccc1O
T/C (endpoint: mean survival time, dose: 100.0 mg/kg/injection, schedule: Q04DX002 (ip), vehicle: saline with Tween-80): 97 % of control
T/C (endpoint: mean survival time, dose: 200.0 mg/kg/injection, schedule: Q04DX002 (ip), vehicle: saline with Tween-80): 91 % of control
T/C (endpoint: mean survival time, dose: 400.0 mg/kg/injection, schedule: Q04DX002 (ip), vehicle: saline with Tween-80): 87 % of control

COc1ccc(S(=O)(=O)NC(=O)NC(=O)C=C(C)C)cc1
T/C (endpoint: mean survival time, dose: 50.0 mg/kg/injection, schedule: Q01DX009 (ip), vehicle: Klucel (hydroxypropylcellulose) (HPC)): 98 % of control
T/C [12]: 104 % of control
T/C [4]: 102 % of control
T/C [13]: 96 % of control
T/C [5]: 98 % of control
T/C [6]: 101 % of control

COC1CN(C)C(=Nc2cccc3ccccc23)S1 (stereo unspecified)
T/C (endpoint: mean survival time, dose: 100.0 mg/kg/injection, schedule: Q01DX009 (ip), vehicle: other): 100 % of control
T/C (endpoint: mean survival time, dose: 100.0 mg/kg/injection, schedule: Q04DX003 (ip), vehicle: other): 103 % of control
T/C (endpoint: mean survival time, dose: 200.0 mg/kg/injection, schedule: Q01DX009 (ip), vehicle: other): 94 % of control
T/C (endpoint: mean survival time, dose: 200.0 mg/kg/injection, schedule: Q04DX003 (ip), vehicle: other): 95 % of control
T/C (endpoint: mean survival time, dose: 400.0 mg/kg/injection, schedule: Q01DX009 (ip), vehicle: other): 97 % of control
T/C (endpoint: mean survival time, dose: 400.0 mg/kg/injection, schedule: Q04DX003 (ip), vehicle: other): 92 % of control

Oc1c(Br)cc(-c2ccccc2)cc1Br
T/C (endpoint: mean survival time, dose: 100.0 mg/kg/injection, schedule: Q04DX002 (ip), vehicle: gum acacia): 95 % of control
T/C (endpoint: mean survival time, dose: 200.0 mg/kg/injection, schedule: Q04DX002 (ip), vehicle: gum acacia): 95 % of control
T/C (endpoint: mean survival time, dose: 400.0 mg/kg/injection, schedule: Q04DX002 (ip), vehicle: gum acacia): 103 % of control
